Like-named read-outs stand apart in the source and are kept apart here.
Tests used:
NPC1mut BMDMs [1] = assay: TNFα secretion (ELISA) by oxLDL/LPS-stimulated BMDMs, mutant; format: cell-based, mice; conditions: 0.6 μM sitostanol 4 hours after oxLDL, then LPS; vs carrier control; p=0.000; FIG. 1A
Method: (§1) Bone-marrow derived cells (BMDCs) were isolated from tibea and femurs of NPC1 wild type (WT) and mutant mice on a C57BL/6 background. BMDCs were cultured for 8-9 days in RPMI-1640 (GIBCO Invitrogen, Breda, The Netherlands) with 10% heat-inactivated fetal calf serum (Bodinco B. V. Alkmaar, The Netherlands), penicillin (100 U/ml), streptomycin (100 μg/ml) and L-glutamine (2 mM) (all GIBCO invitrogen, Breda, The Netherlands) enriched with 20% L929-conditioned medium (LCM) to generate bone marrow-derived macrophages (BMDMs). After attachment, the BMDMs were seeded at 350,000 cells per well in 24 wells plates and incubated with oxLDL for 24. After the oxLDL stimulation, the cells were washed and incubated with cyclodextrin (carrier control) or 0.6 μM sitostanol for 4 hours. The BMDMs were subsequently washed and stimulated with 100 ng/ml LPS for 4 hours to generate an inflammatory response. Finally, BMDMs were lysed for RNA isolation. Gene expression analysis of inflammatory (TNFα, Arginase 1 and inducible NOS), anti-inflammatory (IL-10) and lysosomal cholesterol trafficking (NPC1 and NPC2) genes was performed. […]
(§2) Mouse TNFα secreted protein levels were determined by using the TNFα ELISA kit (mouse TNFα ELISA Ready-SET-Go!, eBioscience, San Diego, Calif.). […] Optical density (OD) was measured at 450 nm by using a spectrophotometer and TNFα concentrations were determined.

NPC1WT BMDMs [2] = assay: TNFα secretion (ELISA) by oxLDL/LPS-stimulated BMDMs, wild type; format: cell-based, mice; conditions: 0.6 μM sitostanol 4 hours after oxLDL, then LPS; vs carrier control; p=0.000; FIG. 1A
Method: as §1, §2

NPC1WT BMDMs [3] = assay: Gene expression of inflammatory mediators in oxLDL/LPS-stimulated BMDMs, wild type; format: cell-based, mice; conditions: 0.6 μM sitostanol; p=0.028; FIG. 1B
Method: (§3) Bone-marrow derived cells (BMDCs) were isolated from tibea and femurs of NPC1 wild type (WT) and mutant mice on a C57BL/6 background. BMDCs were cultured for 8-9 days in RPMI-1640 (GIBCO Invitrogen, Breda, The Netherlands) with 10% heat-inactivated fetal calf serum (Bodinco B. V. Alkmaar, The Netherlands), penicillin (100 U/ml), streptomycin (100 μg/ml) and L-glutamine (2 mM) (all GIBCO invitrogen, Breda, The Netherlands) enriched with 20% L929-conditioned medium (LCM) to generate bone marrow-derived macrophages (BMDMs). After attachment, the BMDMs were seeded at 350,000 cells per well in 24 wells plates and incubated with oxLDL for 24. After the oxLDL stimulation, the cells were washed and incubated with cyclodextrin (carrier control) or 0.6 μM sitostanol for 4 hours. The BMDMs were subsequently washed and stimulated with 100 ng/ml LPS for 4 hours to generate an inflammatory response. Finally, BMDMs were lysed for RNA isolation. Gene expression analysis of inflammatory (TNFα, Arginase 1 and inducible NOS), anti-inflammatory (IL-10) and lysosomal cholesterol trafficking (NPC1 and NPC2) genes was performed. Furthermore, the supernatant was frozen until protein expression analysis of the pro-inflammatory TNFα was performed by Enzyme-Linked Immunosorbent Assay (ELISA).

[4] = humans, cited from earlier work
NPC1mut BMDMs [5] = assay: Gene expression of inflammatory mediators in oxLDL/LPS-stimulated BMDMs, mutant; format: cell-based, mice; conditions: FIG. 1B
Method: as §3

[6] = in vivo; cited from earlier work

CC[C@H](CC[C@@H](C)[C@H]1CC[C@H]2[C@@H]3CC[C@H]4C[C@@H](O)CC[C@]4(C)[C@H]3CC[C@]12C)C(C)C [sitostanol]
TNFα secretion (NPC1mut BMDMs [1]): significantly reduced | TNFα secretion (NPC1WT BMDMs [2]): significantly reduced | gene expression of IL-10 (NPC1WT BMDMs [3]): increased | plasma concentration ([4]; 3 grams per day): 40.9 microgram per dl | plasma concentration ([4]; 9 grams per day): 57.2 microgram per dl | gene expression of arginase 1 (M2 macrophage marker) (NPC1mut BMDMs [5]; 0.6 μM sitostanol vs carrier control, p=0.000): significantly increased | gene expression of Tnfα (NPC1mut BMDMs [5]; 0.6 μM sitostanol vs carrier control, p=0.136): trend towards reduced expression | iNOS/arginase 1 gene expression ratio (NPC1mut BMDMs [5]; 0.6 μM sitostanol vs control-treated NPC1mut BMDMs, p=0.074): trend towards a reduced

cyclodextrin
ability to cross the blood brain barrier [6]: inability of cyclodextrin to cross the blood brain barrier

From patent US20190328752A1, “COMPOUNDS FOR THE TREATMENT OF NIEMANN-PICK DISEASE TYPE C1” (UNIVERSITEIT MAASTRICHT, priority 2016, published 2019)
